Like-named read-outs stand apart in the source and are kept apart here.
Key:
[1] = pharmacokinetics in the human body; format: in vivo; conditions: for accumulation: human
From the text: Serum levels reach steady state after about 2-3 weeks.
Therefore, […] is expected to exert physiological effects after temsirolimus has been cleared.

[2] = preclinical models; cited from earlier work
[3] = cited from earlier work
VEGF receptor 3 = VEGF receptor 3 (Homo sapiens, UniProt P35916); conditions: cited from earlier work
Sequence of VEGF receptor 3 (P35916 25-1363): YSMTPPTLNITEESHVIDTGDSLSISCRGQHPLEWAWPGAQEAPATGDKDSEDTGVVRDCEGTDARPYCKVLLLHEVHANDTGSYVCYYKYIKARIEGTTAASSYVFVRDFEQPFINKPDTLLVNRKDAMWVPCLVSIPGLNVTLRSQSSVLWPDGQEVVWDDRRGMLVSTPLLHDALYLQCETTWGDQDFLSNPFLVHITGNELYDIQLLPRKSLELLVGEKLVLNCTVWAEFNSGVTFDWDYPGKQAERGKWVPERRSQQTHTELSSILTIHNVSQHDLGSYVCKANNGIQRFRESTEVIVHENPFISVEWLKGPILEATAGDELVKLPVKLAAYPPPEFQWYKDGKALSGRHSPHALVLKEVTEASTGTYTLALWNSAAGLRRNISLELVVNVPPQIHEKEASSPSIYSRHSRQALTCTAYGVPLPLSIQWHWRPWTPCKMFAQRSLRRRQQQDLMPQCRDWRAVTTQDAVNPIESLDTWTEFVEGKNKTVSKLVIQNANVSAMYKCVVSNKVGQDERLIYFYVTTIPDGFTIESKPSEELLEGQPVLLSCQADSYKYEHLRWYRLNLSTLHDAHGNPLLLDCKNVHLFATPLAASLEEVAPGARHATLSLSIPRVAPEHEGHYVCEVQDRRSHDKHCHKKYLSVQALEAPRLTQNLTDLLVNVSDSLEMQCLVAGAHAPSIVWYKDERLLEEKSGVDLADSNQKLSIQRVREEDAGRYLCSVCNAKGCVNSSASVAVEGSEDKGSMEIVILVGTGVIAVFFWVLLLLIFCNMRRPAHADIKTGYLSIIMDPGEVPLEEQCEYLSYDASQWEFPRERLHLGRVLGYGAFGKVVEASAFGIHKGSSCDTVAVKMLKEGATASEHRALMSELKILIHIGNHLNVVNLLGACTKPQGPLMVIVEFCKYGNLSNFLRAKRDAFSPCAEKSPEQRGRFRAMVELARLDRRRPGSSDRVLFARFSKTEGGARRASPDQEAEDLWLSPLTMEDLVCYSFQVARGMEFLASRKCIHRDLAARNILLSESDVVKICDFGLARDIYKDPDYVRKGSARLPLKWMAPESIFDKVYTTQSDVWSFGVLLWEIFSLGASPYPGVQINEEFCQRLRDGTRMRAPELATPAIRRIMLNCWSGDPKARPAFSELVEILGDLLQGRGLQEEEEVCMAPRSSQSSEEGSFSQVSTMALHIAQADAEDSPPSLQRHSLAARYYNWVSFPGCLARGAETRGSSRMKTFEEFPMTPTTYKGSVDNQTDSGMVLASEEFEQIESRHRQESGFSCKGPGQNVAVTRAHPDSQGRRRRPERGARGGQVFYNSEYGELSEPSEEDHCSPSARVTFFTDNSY

[4] = cited from earlier work; remark: listed apart in the source

Q: What does the source list for `COc1cc2nccc(Oc3ccc(NC(=O)Nc4cc(C)on4)c(Cl)c3)c2cc1OC` [tivozanib, N-{2-chloro-4-[(6,7-dimethoxy-4-quinolyl)oxy]-phenyl}-N′-(5-methyl-3-isoxazolyl)urea]?
A: time for serum levels to reach steady state ([1]; chronic dosing): 2-3 weeks; accumulation [1]: accumulates in the serum after chronic dosing to a degree that would be expected based on its half-life; half-life ([1]; serum, human body): 91.2 to 113 h; antitumor activity [2]: exhibits antitumor activity; interim results ([3]; 272-patient Phase 2 clinical trial): positive interim results; most common side effects ([3]; Phase 1 and Phase 2 clinical trials): hypertension and dysphonia; dose at which safety had been established ([3]; previous trials, 4 weeks on, 2 weeks off or 3 weeks on, 1 week off): 1.5 mg/day; inhibitory activity (VEGF receptor 3): picomolar inhibitory activity

Q: Which “half-life relative to parent compound temsirolimus” value ([4]; primary metabolite of temsirolimus) does the source give for `CO[C@H]1C[C@@H]2CC[C@@H](C)[C@@](O)(O2)C(=O)C(=O)N2CCCC[C@H]2C(=O)O[C@H]([C@H](C)C[C@@H]2CC[C@@H](O)[C@H](OC)C2)CC(=O)[C@H](C)/C=C(\C)[C@@H](O)[C@@H](OC)C(=O)[C@H](C)C[C@H](C)/C=C/C=C/C=C/1C` [sirolimus] here?
A: about three times that of the parent compound

Q: Which results are given for `CO[C@H]1C[C@@H]2CC[C@@H](C)[C@@](O)(O2)C(=O)C(=O)N2CCCC[C@H]2C(=O)O[C@H]([C@H](C)C[C@@H]2CC[C@@H](OC(=O)C(C)(CO)CO)[C@H](OC)C2)CC(=O)[C@H](C)/C=C(\C)[C@@H](O)[C@@H](OC)C(=O)[C@H](C)C[C@H](C)/C=C/C=C/C=C/1C` [temsirolimus, 42-(3-hydroxy-2-(hydroxymethyl)-2-methylpropanoate) rapamycin]?
A: half-life ([4]; human body): approximately 17 hours; accumulation [1]: does not appear to accumulate more than would be expected based on its half life

From US7998973B2 (AVEO Pharmaceuticals, Inc., priority 2009, dated 2011)
